# Measurements as given in patent US20220000976A1 (priority 2018, published 2022).
# Counter-ions that a name gives are not always drawn.
# Tests used:
# ROR-γt+ Treg cells = details: mouse, in vivo
# Il4ra^F709 mice = assay: Food allergy model: OVA/SEB oral sensitization and OVA challenge of treated Il4ra^F709 mice (core body temperature); format: in vivo, mouse; details: 100 mg/kg i.p. once weekly, OVA/SEB 8 weeks
SMILES,"GATA3+ Helios+ gut Treg cells (ROR-γt+ Treg cells; ip, 100 mg/kg)","GATA3+ Helios− gut Treg cells (ROR-γt+ Treg cells; ip, 100 mg/kg)","GATA3+ gut Treg cells (ROR-γt+ Treg cells; ip, 100 mg/kg)","Gut ROR-γt+ Treg cells (expansion) (ROR-γt+ Treg cells; ip, 100 mg/kg)","ROR-γt+ Helios+ gut Treg cells (ROR-γt+ Treg cells; ip, 100 mg/kg)","ROR-γt+ Helios− gut Treg cells (ROR-γt+ Treg cells; ip, 100 mg/kg)","ROR-γt+ gut Treg cells (ROR-γt+ Treg cells; ip, 100 mg/kg)",Protection against food allergy (Il4ra^F709 mice; OVA challenge),Core body temperature changes compared to control (Il4ra^F709 mice; after OVA challenge),ROR-γt+ staining in CD4+Foxp3+ Treg cells vs sham treatment (ROR-γt+ Treg cells)
"O=S(=O)(O)Oc1c[nH]c2ccccc12 [I3S, Indoxyl sulfate]",statistically significant decrease,statistically significant decrease,statistically significant decrease,expanded gut ROR-γt^+ Treg cells,statistically significant increase,statistically significant increase,statistically significant increase,protected against food allergy,statistically significant increase,–
"O=Cc1c[nH]c2ccccc12 [CA, indol-3-carboxaldehyde]",–,–,–,–,–,–,–,–,–,statistically significant increase
